These results are taken from US20060039985A1, “Methotrexate compositions” (priority 2004, published 2006).

Type in all cases: physicochemical
Series [1] can be described thus: Karl Fisher moisture determination. Particulars: Karl Fisher potentiometric titration; powder in formamide; 0.6 % RSD. The procedure: Moisture content in methotrexate powder was measured by Karl Fisher potentiometric titration by direct injection using a Mitsubishi model CA-06 moisturemeter (Mitsubishi Kasei Corporation, Japan). The powder was dissolved/dispersed in 2.5 mL formamide and 1 mL of the solution was injected […]. Titration checks were made by injecting water standards, Mitsubishi (catalogue number MC02020), at several time intervals.

A short description of series [2]: Modulated differential scanning calorimetry (MDSC) study. The settings on record: MDSC heating, 2° C./minute.
Method: MDSC studies were performed using a TA 2920 instrument (TA instruments, New Castle, Del.). A sample (5-10 mg) of the powder was filled into an aluminum DSC pan in a glove box, with the relative humidity maintained under 1%, and hermetically sealed using a sample encapsulation press. Helium was used as a purge at 30 cm^3/minute; the Refrigerated Control System (RCS) used helium at a flow rate of 110 cm^3/minute. The MDSC protocol was as follows: equilibrate at 0° C.; modulate ±0.318° C. every 60 seconds; ramp 2° C./minute to 200° C.; isothermal for 5 minutes; ramp 10° C./minute to 0° C.; isothermal for 5 minutes; modul 0.318° C. every 60 seconds; ramp 2° C./minute to 280° C.
Series [3] in a line: Dynamic vapor sorption (DVS) study. The settings on record: 25° C. The procedure: Water sorption/desorption studies were conducted on a DVS-1000 moisture balance system (Surface Measurement Systems, UK). A sample (15-30 mg) was initially dried at 25° C. until a constant weight was achieved. The relative humidity was increased from 0 to 90% (with 5% relative humidity increments). Each successive increment was initiated when the change in weight at a given relative humidity was smaller than 5 μg over 5 minutes. Once the sample was exposed to 90% relative humidity, the process was reversed from 90% to 0 relative humidity (with 10% relative humidity increments).

A short description of series [4]: Solubility in REDISPERSE organic solvent (noted in the PLM study). The procedure: PLM and hot stage microscopy studies were done using a Nikon (Melville, N.Y.) Optihot-2 polarizing microscope. A Mettler (Columbus, Ohio) Toledo FP82HT hot stage attachment provided the variable temperature analyses from room temperature to 250° C. at 10° C. per minute. Photomicrographs were taken using a Nikon 35 mm attachment using either a 20× or 40× objective. Microscope slides and coverslips were cleaned with methanol prior to use.
Birefringence persisted after quench cooling from […]

Each structure is given as a SMILES string.

In turn, `CN(Cc1cnc2nc(N)nc(N)c2n1)c1ccc(C(=O)N[C@@H](CCC(=O)O)C(=O)O)cc1` [methotrexate] had a Moisture content in series [1] of 7.1%. In series [2], the Decomposition temperature is 246-250 °C. Moreover, in series [3], the “Hygroscopicity compared to crystalline material” value is listed as “hygroscopic than the crystalline material” and the “Relative humidity at which signs of moisture-induced crystallization are observed in DVS time profile” value is reported as 70 % relative humidity. For the same compound, in series [3] (90% to 0 relative humidity), the “Hysteresis upon desorption of water” value was “no hysteresis”. Moreover, the “Absorption of water, % of its weight” value in series [3] (at 90% relative humidity) is given as “about 13.5%”. Moreover, the “Storage relative humidity for long term stability of liquid crystalline phase” value in series [3] (suggested by DVS data) is recorded as “below 70 % relative humidity”. For the same compound, in series [4], the “Solubility in REDISPERSE brand of solvent” value is “insoluble”.
